System: immunoglobulin light chain protein WIL-FL T46L
Assay: Differential Scanning Fluorimetry (thermal shift) assay
Assay type: binding
Conditions: recombinant amyloidogenic full length light chain WIL-FL T46L; protein and compound incubated at RT for 30 min before dye
Procedure: Differential Scanning Fluorimetry Assay
The stabilization effects the compounds have on the immunoglobulin light chain protein was quantitively measured using a thermal shift assay. Recombinant amyloidogenic full length light chain protein WIL-FL T46L was produced in E. coli, purified, and used in the assay. The Thermal Shift Protein Stability Kit from Biotium was used and the assay was done in 96-well Plates following the manufacturer's instructions. The protein and compounds were incubated at RT for 30 min before adding the dye and subjected to the thermal shift assay. The thermal stability (Tm) of each sample was then determined using standard curve fitting methods and compared to vehicle. Data are expressed as temperature shift: [Tm]compound−[Tm]vehicle.
The compounds provided herein induce shifts in the ranges below: • 0-0.5° C.═* • >0.5-1° C.═** • >1-1.5° C.═*** • >1.5-2.5° C.═**** • >2.5° C.═*****

SMILES: CC[C@@]1(c2ccccc2)CCN(c2cc(C)n(CCN3CC4(CCN(c5nccn6cnnc56)CC4)NC3=O)c(=O)c2)C1 [Compound 1, (S)-8-([1,2,4]triazolo[4,3-a]pyrazin-8-yl)-3-(2-(4-(3-ethyl-3-phenylpyrrolidin-1-yl)-6-methyl-2-oxopyridin-1(2H)-yl)ethyl)-1,3,8-triazaspiro[4.5]decan-2-one]
- DSF temperature shift: [Tm]compound−[Tm]vehicle: ***** (>2.5° C.═*****)

SMILES: Cc1cc(N2CC[C@@](C)(c3ccccc3)C2)cc(=O)n1CCN1CC2(CCN(c3ncnc4[nH]ncc34)CC2)NC1=O [Compound 9]
- DSF temperature shift: [Tm]compound−[Tm]vehicle: **** (>1.5-2.5° C.═****)

SMILES: Cc1cc(N2CC[C@@](C)(c3ccccc3)C2)cc(=O)n1CCCN1CC2(CCN(c3nccn4ccnc34)CC2)NC1=O [Compound 10]
- DSF temperature shift: [Tm]compound−[Tm]vehicle: **** (>1.5-2.5° C.═****)

SMILES: Cc1cc(N2CCC(C)(c3ccccc3)C2)cc(=O)n1CCN1CC2(CCN(c3ncccn3)C2)NC1=O (stereo not shown) [Compound 11, 3-(2-(6-methyl-4-(3-methyl-3-phenylpyrrolidin-1-yl)-2-oxopyridin-1(2H)-yl)ethyl)-7-(pyrimidin-2-yl)-1,3,7-triazaspiro[4.4]nonan-2-one]
- DSF temperature shift: [Tm]compound−[Tm]vehicle: *** (>1-1.5° C.═***)

SMILES: Cc1cc(N2CC[C@](C)(c3ccccc3)C2)cc(=O)n1CCN1CC2(CCN(c3nccn4ccnc34)CC2)NC1=O [Compound 12]
- DSF temperature shift: [Tm]compound−[Tm]vehicle: *** (>1-1.5° C.═***)

SMILES: Cc1cc(N2CC[C@@](C)(c3ccccc3)C2)cc(=O)n1CCCN1CC2(CCN(c3nccn4ccnc34)CC2)NC1=O [Compound 13]
- DSF temperature shift: [Tm]compound−[Tm]vehicle: ** (>0.5-1° C.═**)

SMILES: CCOC(=O)c1ccc(N2CCC3(CC2)CN(CCn2c(C)cc(N4CC[C@](CC)(c5ccccc5)C4)cc2=O)C(=O)N3)cn1 [Compound 14]
- DSF temperature shift: [Tm]compound−[Tm]vehicle: ***** (>2.5° C.═*****)

SMILES: CC[C@@]1(c2ccccc2)CCN(c2cc(C)n(CCN3CC4(CCN(c5cn6ccnc6cn5)CC4)NC3=O)c(=O)c2)C1 [Compound 15]
- DSF temperature shift: [Tm]compound−[Tm]vehicle: **** (>1.5-2.5° C.═****)

SMILES: CC[C@@]1(c2ccccc2)CCN(c2cc(C)n(CCN3CC4(CCN(c5ccc6nncn6c5)CC4)NC3=O)c(=O)c2)C1 [Compound 16]
- DSF temperature shift: [Tm]compound−[Tm]vehicle: **** (>1.5-2.5° C.═****)

SMILES: CC[C@]1(c2ccccc2)CCN(c2cc(C)n(CCN3CC4(CCN(c5ccc(C(=O)O)nn5)CC4)NC3=O)c(=O)c2)C1 [Compound 17]
- DSF temperature shift: [Tm]compound−[Tm]vehicle: ***** (>2.5° C.═*****)

SMILES: CC[C@]1(c2ccccc2)CCN(c2cc(C)n(CCN3CC4(CCN(c5ccc(C(=O)OC)nn5)CC4)NC3=O)c(=O)c2)C1 [Compound 18]
- DSF temperature shift: [Tm]compound−[Tm]vehicle: ***** (>2.5° C.═*****)

SMILES: CC[C@]1(c2ccccc2)CCN(c2cc(C)n(CCN3CC4(CCN(c5ccc(C(=O)O)nc5)CC4)NC3=O)c(=O)c2)C1 [Compound 19]
- DSF temperature shift: [Tm]compound−[Tm]vehicle: ** (>0.5-1° C.═**)

SMILES: CC[C@]1(c2ccccc2)CCN(c2cc(C)n(CCN3CC4(CCN(c5cccc(C(=O)O)n5)CC4)NC3=O)c(=O)c2)C1 [Compound 20]
- DSF temperature shift: [Tm]compound−[Tm]vehicle: **** (>1.5-2.5° C.═****)

SMILES: CC[C@]1(c2ccccc2)CCN(c2cc(C)n(CCN3CC4(CCN(c5cccc(C(=O)OC)n5)CC4)NC3=O)c(=O)c2)C1 [Compound 21]
- DSF temperature shift: [Tm]compound−[Tm]vehicle: **** (>1.5-2.5° C.═****)

SMILES: CC[C@]1(c2ccccc2)CCN(c2cc(C)n(CCN3CC4(CCN(c5nccn6cnnc56)CC4)NC3=O)c(=O)c2)C1 [Compound 22]
- DSF temperature shift: [Tm]compound−[Tm]vehicle: *** (>1-1.5° C.═***)

SMILES: Cc1nc(N2CC[C@](C)(c3ccccc3)C2)cc(=O)n1CCN1CC2(CCN(c3nccn4ccnc34)CC2)NC1=O [Compound 24]
- DSF temperature shift: [Tm]compound−[Tm]vehicle: *** (>1-1.5° C.═***)

SMILES: Cc1cc(N2CC[C@@](C)(c3ccccc3)C2)cc(=O)n1CCCN1C(=O)NC2(CCN(c3nccn4ccnc34)CC2)C1=O [Compound 27]
- DSF temperature shift: [Tm]compound−[Tm]vehicle: **** (>1.5-2.5° C.═****)

SMILES: Cc1cc(N2CCC(C)(c3ccccc3)C2)cc(=O)n1CCCN1C(=O)NC2(CCN(c3ncccn3)CC2)C1=O (stereo not shown) [Compound 28, 3-(3-(6-methyl-4-(3-methyl-3-phenylpyrrolidin-1-yl)-2-oxopyridin-1(2H)-yl)propyl)-8-(pyrimidin-2-yl)-1,3,8-triazaspiro[4.5]decane-2,4-dione]
- DSF temperature shift: [Tm]compound−[Tm]vehicle: **** (>1.5-2.5° C.═****)

SMILES: Cc1cc(N2CCC(C)(c3ccccc3)C2)cc(=O)n1CCCN1C(=O)NC2(CCN(c3nccn4ccnc34)CC2)C1=O (stereo not shown) [Compound 29]
- DSF temperature shift: [Tm]compound−[Tm]vehicle: **** (>1.5-2.5° C.═****)

SMILES: Cc1cc(N2CCC(C)(c3ccccc3)C2)cc(=O)n1CCN1C(=O)NC2(CCN(c3ncccn3)CC2)C1=O (stereo not shown) [Compound 30]
- DSF temperature shift: [Tm]compound−[Tm]vehicle: **** (>1.5-2.5° C.═****)

SMILES: Cc1cc(N2CC[C@@](C)(c3ccccc3)C2)cc(=O)n1CCN1C(=O)NC2(CCN(c3nccn4cncc34)CC2)C1=O [Compound 31]
- DSF temperature shift: [Tm]compound−[Tm]vehicle: *** (>1-1.5° C.═***)

SMILES: Cc1cc(O[C@H](C)c2ccccc2)cc(=O)n1CCN1C(=O)NC2(CCN(c3nccn4ccnc34)CC2)C1=O [Compound 32, (R)-8-(imidazo[1,2-a]pyrazin-8-yl)-3-(2-(6-methyl-2-oxo-4-(1-phenylethoxy)pyridin-1(2H)-yl)ethyl)-1,3,8-triazaspiro[4.5]decane-2,4-dione]
- DSF temperature shift: [Tm]compound−[Tm]vehicle: ** (>0.5-1° C.═**)

SMILES: Cc1cc(N2CCC(C)(c3ccccc3)C2)cc(=O)n1CCN1C(=O)NC2(CCN(c3ncccn3)C2)C1=O (stereo not shown) [Compound 33]
- DSF temperature shift: [Tm]compound−[Tm]vehicle: *** (>1-1.5° C.═***)

SMILES: Cc1cc(N2CCC(C)(c3ccccc3)C2=O)cc(=O)n1CCN1C(=O)NC2(CCN(c3ncccn3)C2)C1=O (stereo not shown) [Compound 34, 3-(2-(6-methyl-4-(3-methyl-2-oxo-3-phenylpyrrolidin-1-yl)-2-oxopyridin-1(2H)-yl)ethyl)-7-(pyrimidin-2-yl)-1,3,7-triazaspiro[4.4]nonane-2,4-dione]
- DSF temperature shift: [Tm]compound−[Tm]vehicle: * (0-0.5° C.═*)

SMILES: Cc1cc(N2CC[C@](C)(c3ccccc3)C2)cc(=O)n1CCCN1C(=O)NC2(CCN(c3nccn4ccnc34)CC2)C1=O [Compound 35]
- DSF temperature shift: [Tm]compound−[Tm]vehicle: *** (>1-1.5° C.═***)
